Results published in patent publication US20020035131A1, “Regimen and kit for amelioration of premature ejaculation” (Pentech Pharmaceuticals, Inc., priority 1999, published 2002).
“And” between values parts separate entries of the source, which are not always exact repeats. Equal values may be shown once.

Legend:
[1] = cited from earlier work
[2] = test system: normally potent male patients suffering from premature ejaculation; assay: Example 1: incidence of adverse effects; type: in vivo, human
Description: All patients in the study group were heterosexual, had no other sexual disorders and were either married or in a stable relationship. The baseline pre-treatment ELT for the group, determined as the mean of measurements from a minimum of two acts of sexual intercourse was 2.2 (range 2-3) as reported by patients prior to commencement of the study using a stop watch operated by the patients.
Each patient was supplied with an ejaculation diary and instructed to record their frequency of coitus, quality of erection and orgasm, and to measure and record their ejaculatory latency time using a stop-watch. The patients were required to attempt coitus on at least two occasions each week.

[3] = test system: normally potent male patients suffering from premature ejaculation; assay: Example 2 Study Group 2: single blind cross-over, daily paroxetine then continual maintenance vs placebo (ELT, coitus frequency); type: in vivo, human
[4] = test system: central β-adrenergic receptors; settings: unlike sertraline; cited from earlier work
[5] = Group A-Phase 1: 20 mg acute daily dosing
[6] = Group A-Phase 1: 20 mg acute daily dosing, 61 patients
[7] = Study Group 2-C, week 1: paroxetine 10 mg daily
[8] = Study Group 2-C, week 2: paroxetine 10 mg daily
[9] = Study Group 2-C, week 3: paroxetine 10 mg daily
[10] = Study Group 2-C, week 4: paroxetine 20 mg continual maintenance after three weeks 10 mg daily
[11] = Study Group 2-C, week 5: paroxetine 20 mg continual maintenance after three weeks 10 mg daily
[12] = Study Group 2-C, week 6: paroxetine 20 mg continual maintenance after three weeks 10 mg daily
[13] = Study Group 2-C, week 7: paroxetine 20 mg continual maintenance after three weeks 10 mg daily
[14] = Study Group 2-D, week 11: paroxetine 10 mg daily, first week after placebo phases and washout
[15] = Study Group 2-D, week 12: paroxetine 10 mg daily, second week after placebo phases and washout
[16] = Study Group 2-D, week 13: paroxetine 10 mg daily, third week after placebo phases and washout
[17] = Study Group 2-D, week 14: paroxetine 20 mg continual maintenance after three weeks 10 mg daily
[18] = Study Group 2-D, week 15: paroxetine 20 mg continual maintenance after three weeks 10 mg daily
[19] = Study Group 2-D, week 16: paroxetine 20 mg continual maintenance after three weeks 10 mg daily
[20] = Study Group 2-D, week 17: paroxetine 20 mg continual maintenance after three weeks 10 mg daily

Fc1ccc([C@@H]2CCNC[C@H]2COc2ccc3c(c2)OCO3)cc1 (relative stereo) [paroxetine, trans-(−)-3-(1,3-benzodioxol-5-yloxy)methyl-4-(4-fluorophenyl) piperidine]
time to steady state systemic levels ([1]; occurring after about): 7 to 14 days
half life ([1]; reportedly): 24 h
time to peak plasma levels ([1]; usually achieved within about): 2 to 8 h
Adverse effects: Total Patients (fraction) [2, 5]: 12/61
Adverse effects: Total Patients (percent) [2, 5]: 20%
Adverse Effect: Drowsiness (patients) [2, 6]: 1
Adverse Effect: Inhibited orgasm (patients) [2, 6]: 3
Adverse effect: Anejaculation (patients) [2, 6]: 5
Adverse effect: Anorexia (patients) [2, 6]: 1
Adverse effect: Gastrointestinal upset (patients) [2, 6]: 2
Adverse effect: Reduced Libido (patients) [2, 6]: 3
patients with inhibition of orgasm despite achieving ejaculation (percent) ([2]; Group A-Phase 1: acute treatment with 20 mg paroxetine/day, 3/61): 5%
patients with anejaculation (percent) ([2]; Group A-Phase 1: acute treatment with 20 mg paroxetine/day, 5/61): 8%
Adverse effects: Total Patients (fraction) ([2]; Group A-Phase 2: 20 mg continual maintenance after conversion): None and 0/53
Adverse effects: Total Patients (fraction) ([2]; Group B: 20 mg continual maintenance only): None and 0/33
Erectile dysfunction ([2]; all patients of Example 1): not reported by any of the patients
patients with anejaculation achieving ejaculation with a reduced dose ([2]; anejaculation on 20 mg/day, reduced dose of 5 mg (n=3) and 10 mg (n=1)): 4/5
Coitus Frequency/wk [3, 7]: 1.7 /wk
Ejaculatory Latency Time [3, 7]: 1.2 min
Coitus Frequency/wk [3, 8]: 1.9 /wk
Ejaculatory Latency Time [3, 8]: 1.8 min
Coitus Frequency/wk [3, 9]: 2.7 /wk
Ejaculatory Latency Time [3, 9]: 4.3 min
Coitus Frequency/wk [3, 10]: 2.3 /wk
Ejaculatory Latency Time [3, 10]: 4.5 min
Coitus Frequency/wk [3, 11]: 2.0 /wk
Ejaculatory Latency Time [3, 11]: 5.2 min
Coitus Frequency/wk [3, 12]: 2.9 /wk
Ejaculatory Latency Time [3, 12]: 4.7 min
Coitus Frequency/wk [3, 13]: 2.4 /wk
Ejaculatory Latency Time [3, 13]: 5.8 min
Coitus Frequency/wk [3, 14]: 2.0 /wk
Ejaculatory Latency Time [3, 14]: 2.2 min
Coitus Frequency/wk [3, 15]: 2.2 /wk
Ejaculatory Latency Time [3, 15]: 3.5 min
Coitus Frequency/wk [3, 16]: 3.1 /wk
Ejaculatory Latency Time [3, 16]: 3.3 min
Coitus Frequency/wk [3, 17]: 3.0 /wk
Ejaculatory Latency Time [3, 17]: 4.2 min
Coitus Frequency/wk [3, 18]: 2.6 /wk
Ejaculatory Latency Time [3, 18]: 3.9 min
Coitus Frequency/wk [3, 19]: 2.5 /wk
Ejaculatory Latency Time [3, 19]: 4.6 min
Coitus Frequency/wk [3, 20]: 2.7 /wk
Ejaculatory Latency Time [3, 20]: 6.1 min
patients achieving intra-vaginal ejaculation for the first time ([3]; Study Group 2, patients who had never previously achieved it, after two weeks of treatment): all of the five
affinity for central β-adrenergic receptors [4]: little affinity
